This passage reports h-IntCL and IC50 results from US12084430B2, “Tricyclic urea compounds as JAK2 V617F inhibitors” (Incyte Corporation, priority 2022, dated 2024).

The structures appear in SMILES notation.

Series [1] is described as follows: In vitro intrinsic clearance. It counts as in vitro ADME. To be noted: human liver microsomes, 1 μM. As to the method:
Example G. In Vitro Intrinsic Clearance Protocol
For in vitro metabolic stability experiments, test compounds were incubated with human liver microsomes at 37° C. The incubation mixture contained test compounds (1 μM), NADPH (2 mM), and human liver microsomes (0.5 mg protein/mL) in 100 mM phosphate buffer (pH 7.4). The mixture was pre-incubated for 2 min at 37° C. before the addition of NADPH. Reactions were commenced upon the addition of NADPH and quenched with ice-cold methanol at 0, 10, 20, and 30 min. Terminated incubation mixtures were analyzed using LC-MS/MS system. The analytical system consisted of a Shimadzu LC-30AD binary pump system and SIL-30AC autosampler (Shimadzu Scientific Instruments, Columbia, MD) coupled with a Sciex Triple Quad 6500+ mass spectrometer from Applied Biosystems (Foster City, CA). […] Mobile phase A consisted of 0.1% formic acid in water, and mobile phase B consisted of 0.1% formic acid in acetonitrile. The total LC-MS/MS runtime was 2.75 minutes with a flow rate of 0.75 mL/min. Peak area integrations and peak area ratio calculations were performed using Analyst software (version 1.6.3) from Applied Biosystems.
The in vitro intrinsic clearance, CLint, in vitro, was calculated from the t1/2 of test compound disappearance as CLint, in vitro=(0.693/t1/2)×(1/Cprotein), where Cprotein is the protein concentration during the incubation, and t1/2 was determined by the slope (k) of the log-linear regression analysis of the concentration versus time profiles; thus, t1/2=ln 2/k. The CLint, in vitro values were scaled to the in vivo values for human by using physiologically based scaling factors, hepatic microsomal protein concentrations (45 mg protein/g liver), and liver weights (21 g/kg body weight). The equation CLint=CLint, in vitro×(mg protein/g liver weight)×(g liver weight/kg body weight) was used. The in vivo hepatic clearance (CLH) was then calculated by using CLint and hepatic blood flow, Q (20 mL·min^−1·kg^−1 in humans) in the well-stirred liver model disregarding all binding from CLH=(Q×CLint)/(Q+CLint). The hepatic extraction ratio was calculated as CLH divided by Q.
In general terms: Microsomes from liver hold many membrane-bound enzymes, among them those of drug oxidation.

For series [2], the system named is STAT5 (Tyr694) phosphorylation in SET-2 cells. The experiment in a line: STAT5 (Tyr694) phosphorylation cell based assay. To be noted: Homo sapiens, pSTAT5, 2 hours, read-out: SET2 IC50. As to the method:
Example E. STAT5 (Tyr694) Phosphorylation Cell Based Assay
SET-2 cells was purchased from DSMZ (Germany). RPMI1640 medium, Fetal Bovine Serum and 384-white sold flat-bottom small volume plate were purchased from Thermo Fisher Scientific (Waltham, MA). Phospho-STAT5 (Tyr694) HTRF kit was purchased from Perkin Elmer (Waltham, MA).
SET-2 cells were cultured in RPMI media with 20% FBS at 37° C. in humidified incubator supplied with 5% CO2. On the day of assay, the cells were centrifuged to remove the culture media and resuspended with prewarmed RPMI with 10% FBS. Testing compounds were prepared by serial dilution in DMSO and 50 nL/well test compounds were transferred to the 384 white low volume cell culture plate (Greiner Bio-one) by ECHO liquid handler (Labcyte). The cells were then dispensed with Multidrop (Thermo Fisher, Waltham, MA) at 10 μL/well (7×10^6 cells/mL) with 0.5% DMSO in the final assay. After the treated cells were incubated for 2 hours at 37° C./5% CO2 incubator, 4 μL/well supplemented lysis buffer (100× blocking buffer diluted 25 fold in 4× lysis buffer, Perkin Elmer) were added and incubated at room temperature for 90 min on orbital shaker at 600 rpm. Phospho-STAT5 Cryptate antibody and Phospho-STAT5 d2 antibody (1:1 vol/vol) were premixed and diluted 20 fold with in the detection buffer (Perkin Elmer). 4 μL of the premixed antibody solution were added to each well followed with 24 hours incubation at room temperature on orbital shaker at 600 rpm. The product activity was determined by measuring the fluorescence at 620 nm and 665 nm on Pherastar microplate reader (BMG Labtech). A ratio is calculated (665/620) for each well. Wells with DMSO only served as the positive controls and wells containing high concentration of control compound were used as negative controls. IC50 determination was performed by fitting the curve of percent control activity versus the log of the compound concentration using the GraphPad Prism 7.0 software.

Series [3] has as its system pSTAT5 signaling in SET-2 cells in whole blood. Description: pSTAT5 SET-2 whole blood MSD assay. In kind it is cell-based. To be noted: Homo sapiens, pSTAT5, 2 hour, read-out: SET2 WB IC50. As to the method: Example F. pSTAT5 SET-2 Whole Blood MSD Assay
SET-2 cells shipped from ABS, RPMI1640 medium, Fetal Bovine Serum from Gibco, Phospho-STAT5a,b Whole Cell Lysate Kit from Mesoscale, Retronectin (Recombinant Human Fibronectin Fragment) from TaKaRa, 96 well cell culture plate flat bottom from Corning, lysis buffer from Cell Signaling Technology, and sterile PBS from Gibco. Whole Blood from by BioIVT.
SET-2 cells were cultured in RPMI media with 20% FBS at 37° C. humidified incubator supplied with 5% CO2. On the day of the assay, 40 uL per well of diluted retronectin working solution was added to sterile 96-well clear flat bottom tissue culture plates (1:200 dilution of retronectin in sterile PBS) and incubated at 37 C for 1 hour. After 1 hour, the retronectin working solution was aspirated and SET-2 cells were seeded at 100,000/well in RPMI+20% FBS. Cells were incubated overnight at 37° C. and 5% CO2. The next day, the medium was removed and 40 μL of diluted compounds in serum-free RPMI and whole blood was added to the cells for a 2 hour incubation at 37° C. and 5% CO2. The compound starting concentration is 20 μM and 2.5 fold serial diluted down to 0.21 nM. The whole blood and compound mixture was then aspirated off using the BlueCat plate washer and washed 1× with PBS. Cells were lysed by adding 40 μL of 3× complete lysis buffer and shaken at room temperature for 45-60 minutes (complete lysis buffer consists of Cell Signaling Technology lysis buffer diluted to 3× and supplemented with Mesoscale's protease inhibitor, phosphatase I inhibitor, and phosphatase II inhibitor). The pSTAT5 MSD plates were blocked by adding 150 μL of Blocker A solution per well to the MSD plates and incubated at room temperature with shaking at 400 rpm for one hour or longer. After blocking, plates were washed 3× with 300 μL/well of IX Tris Wash Buffer. After lysis, added 25 μL per well of lysed sample was added to MSD plate and incubated with shaking at 4° C. wrapped in foil overnight. The next day, plates were washed again and 25 μL/well of diluted 1× Detection Antibody Solution, wrapped in foil, and incubated at room temperature with shaking at 400 rpm for 1 hour. Plates were then washed again and lastly, 150 μL/well of 1× Read Buffer T was added to all wells. Plates were analyzed on MSD Discovery within 5 minutes. […] Data analysis was performed in GraphPad Prism using a 4-parameter fit and data was reported as Average±SD.

One may read the IC50 as the concentration needed to halve the response being measured. In the case of `COc1nn(C)cc1-c1[nH]c2ncc3c(c2c1-c1ccc2c(cnn2C)c1)n(C1CCOCC1)c(=O)n3C` [A, reference compound], in series [1], the h-IntCL entry is “‡ ‡ ‡ (h-IntCL of >1 L/h/kg)”. Besides, the IC50 in series [2] is over 800 nM; in series [3] it was over 7.5 µM.

With `[2H]C([2H])([2H])n1ncc2cc(-c3c(-c4cn(C)nc4OC)[nH]c4ncc5c(c34)n(C3CCOCC3)c(=O)n5C)ccc21` [B, reference compound], in series [1], the h-IntCL entry is given as “‡ ‡ (h-IntCL of ≥0.7 L/h/kg to ≤1 L/h/kg)”. Moreover, the figures for the IC50 in series [2] and in series [3] were over 800 nM and over 7.5 µM, respectively.

In the case of `COc1nn(C)cc1-c1[nH]c2ncc3c(c2c1-c1ccc2c(cnn2C)c1)n([C@H]1CC[C@@H](CC#N)CC1)c(=O)n3C` [E, reference compound], the h-IntCL entry in series [1] is on record as “‡ ‡ ‡ (h-IntCL of >1 L/h/kg)”. Further, in series [2], the half-inhibitory concentration (IC50) was 300 to 800 nM.

As to `COC(=O)N[C@@H]1CC[C@@H](n2c(=O)n(C)c3cnc4[nH]c(-c5cn(C)nc5OC)c(-c5ccc(F)cc5)c4c32)C1` [Example 1, Methyl ((1R,3R)-3-(8-(4-fluorophenyl)-7-(3-methoxy-1-methyl-1H-pyrazol-4-yl)-3-methyl-2-oxo-3,6-dihydroimidazo[4,5-d]pyrrolo[2,3-b]pyridin-1(2H)-yl)cyclopentyl)carbamate], the h-IntCL entry in series [1] is listed as “‡ ‡ (h-IntCL of ≥0.7 L/h/kg to ≤1 L/h/kg)”. For the same molecule, the IC50 in series [2] is over 800 nM; in series [3], 2.5 to 5 µM.

As to `COC(=O)N[C@@H]1CC[C@@H](n2c(=O)n(C)c3cnc4[nH]c(-c5cn(C)nc5OC)c(-c5ccccc5)c4c32)C1` [Example 2, Methyl ((1R,3R)-3-(7-(3-methoxy-1-methyl-1H-pyrazol-4-yl)-3-methyl-2-oxo-8-phenyl-3,6-dihydroimidazo[4,5-d]pyrrolo[2,3-b]pyridin-1(2H)-yl)cyclopentyl)carbamate], the h-IntCL entry in series [1] is reported as “‡ ‡ (h-IntCL of ≥0.7 L/h/kg to ≤1 L/h/kg)”. Moreover, the IC50 lay in the range of 300 to 800 nM in series [2] and 2.5 to 5 µM in series [3].

As to `COC(=O)N[C@@H]1CC[C@@H](n2c(=O)n(C)c3cnc4[nH]c(-c5cn(C)nc5OC)c(-c5cccc(F)c5)c4c32)C1` [Example 3, Methyl ((1R,3R)-3-(8-(3-fluorophenyl)-7-(3-methoxy-1-methyl-1H-pyrazol-4-yl)-3-methyl-2-oxo-3,6-dihydroimidazo[4,5-d]pyrrolo[2,3-b]pyridin-1(2H)-yl)cyclopentyl)carbamate], the h-IntCL result in series [1] is recorded as “‡ ‡ (h-IntCL of ≥0.7 L/h/kg to ≤1 L/h/kg)”. In addition, the IC50 in series [2] fell in the range of 300 to 800 nM; in series [3] it was 5 to 7.5 µM.

Turning to `COC(=O)N[C@@H]1CC[C@@H](n2c(=O)n(C)c3cnc4[nH]c(-c5cn(C)nc5OC)c(-c5ccc(OC)c(F)c5)c4c32)C1` [Example 4, Methyl ((1R,3R)-3-(8-(3-fluoro-4-methoxyphenyl)-7-(3-methoxy-1-methyl-1H-pyrazol-4-yl)-3-methyl-2-oxo-3,6-dihydroimidazo[4,5-d]pyrrolo[2,3-b]pyridin-1(2H)-yl)cyclopentyl)carbamate], the h-IntCL entry in series [1] is listed as “‡ (h-IntCL of <0.7 L/h/kg)”. For the same molecule, the IC50 was 300 to 800 nM in series [2] and at most 2.5 µM in series [3].

On to `[2H]C([2H])([2H])n1ncc2cc(-c3c(-c4cn(C)nc4OC)[nH]c4ncc5c(c34)n([C@@H]3CC[C@@H](NC(=O)OC)C3)c(=O)n5C)ccc21` [Example 5, Methyl ((1R,3R)-3-(7-(3-methoxy-1-methyl-1H-pyrazol-4-yl)-3-methyl-8-(1-(methyl-d3)-1H-indazol-5-yl)-2-oxo-3,6-dihydroimidazo[4,5-d]pyrrolo[2,3-b]pyridin-1(2H)-yl)cyclopentyl)carbamate], for which, in series [1], the h-IntCL result was “‡ (h-IntCL of <0.7 L/h/kg)”. Further, the IC50 in series [2] was at most 300 nM; in series [3] it was at most 2.5 µM.

With `[2H]C([2H])([2H])n1cc(-c2[nH]c3ncc4c(c3c2-c2ccc3c(cnn3C([2H])([2H])[2H])c2)n([C@@H]2CC[C@@H](NC(=O)OC)C2)c(=O)n4C([2H])([2H])[2H])c(F)n1` [Example 6, Methyl ((1R,3R)-3-(7-(3-fluoro-1-(methyl-d3)-1H-pyrazol-4-yl)-3-(methyl-d3)-8-(1-(methyl-d3)-1H-indazol-5-yl)-2-oxo-3,6-dihydroimidazo[4,5-d]pyrrolo[2,3-b]pyridin-1(2H)-yl)cyclopentyl)carbamate], the h-IntCL result in series [1] is listed as “‡ ‡ (h-IntCL of ≥0.7 L/h/kg to ≤1 L/h/kg)”. Also, the IC50 in series [2] is at most 300 nM; in series [3], at most 2.5 µM.

As to `[2H]C([2H])([2H])n1cc(-c2[nH]c3ncc4c(c3c2-c2ccc(F)cc2)n([C@@H]2CC[C@@H](NC(=O)OC)C2)c(=O)n4C([2H])([2H])[2H])c(F)n1` [Example 7, Methyl ((1R,3R)-3-(7-(3-fluoro-1-(methyl-d3)-1H-pyrazol-4-yl)-8-(4-fluorophenyl)-3-(methyl-d3)-2-oxo-3,6-dihydroimidazo[4,5-d]pyrrolo[2,3-b]pyridin-1(2H)-yl)cyclopentyl)carbamate], the h-IntCL result in series [1] was “‡ (h-IntCL of <0.7 L/h/kg)”. Also, the figures for the IC50 in series [2] and in series [3] were 300 to 800 nM and 2.5 to 5 µM, respectively.

In the case of `[2H]C([2H])([2H])n1cc(-c2[nH]c3ncc4c(c3c2-c2ccc3c(c2)COC3(C)C)n([C@@H]2CC[C@@H](NC(=O)OC)C2)c(=O)n4C([2H])([2H])[2H])c(F)n1` [Example 8, Methyl ((1R,3R)-3-(8-(1,1-dimethyl-1,3-dihydroisobenzofuran-5-yl)-7-(3-fluoro-1-(methyl-d3)-1H-pyrazol-4-yl)-3-(methyl-d3)-2-oxo-3,6-dihydroimidazo[4,5-d]pyrrolo[2,3-b]pyridin-1(2H)-yl)cyclopentyl)carbamate], the h-IntCL result in series [1] was “‡ (h-IntCL of <0.7 L/h/kg)”. The values for the IC50 in series [2] and in series [3] were at most 300 nM and at most 2.5 µM, respectively.
